The source of these data is article PMC1968618, “Acetylsalicylic acid (ASA) protects the prostaglandin-cAMP-system of human hypernephroma cells against irradiation-induced alterations” (British Journal of Cancer, 1993).

Where “and” joins values, the source holds several entries; their conditions need not be identical. Equal values may be shown once.

The subject of data set [1] is PG biosynthesis of human hypernephroma cells. Description: Conversion of exogenously added 14C-AA to its metabolites (radiothinlayer chromatography). Type of data set: cell-based. The conditions noted are these: for 14C-AA conversion to 12-HETE, Table IV / 14C-AA conversion to PGD2, Table IV / 14C-AA conversion to PGE2, Table IV / 14C-AA conversion to PGF2alpha, Table IV / 14C-AA conversion to TXB2, Table IV / AA (%) remaining, Table IV: individual cell lines.

The subject of data set [2] is human hypernephroma cells. Briefly: Cellular viability (phase-contrast microscopy and Trypan Blue exclusion). The conditions noted are these: ASA incubation for 24 h. Type of data set: cell-based.
[3] abbreviates: ASA-treated group (group 2), patients 1,3,4,6,8,9,11 in order.
Setting [4] is: ASA-treated group irradiated (group 4), patients 3,4,6,9,11 in order.

Take `CC(=O)Oc1ccccc1C(=O)O` [ASA, acetylsalicylic acid]: in data set [1] (setting [3]), the “14C-AA conversion to 12-HETE, Table IV” value was 6.9% and 4.2% and 7.3% and 5.5% and 5.3% and 4.9% and 8.8%; the “14C-AA conversion to PGD2, Table IV” value is 1.3% and 0.9% and 0.2% and 0.5% and 0.4% and 0.6% and 0.8%; the “14C-AA conversion to PGE2, Table IV” value is 1.8% (2×) and 1.1% and 2.2% and 0.7% and 1.5% and 1.3%; the “14C-AA conversion to PGF2alpha, Table IV” value was 1.7% and 0.7% and 0.8% and 0.2% and 0.3% (2×) and 0.5%. For the same compound, in data set [1] (setting [3]), the “14C-AA conversion to TXB2, Table IV” value is 1.2% and 0.8% and 1.7% and 1.3% (2×) and 2.3% and 1.5%; the “AA (%) remaining, Table IV” value is 66.5% and 78.2% and 72.9% and 78.5% (2×) and 82.8% and 81.0%. Further, in data set [1] (ASA-treated group (group 2), mean (control group 3.2)), the “14C-AA conversion to PGF2alpha” value was determined as 0.6%. For the same compound, the “14C-AA conversion to 12-HETE” value in data set [1] (ASA-treated group (group 2), mean (control group 3.7)) was 6.1%. Further, the “14C-AA conversion to TXB2” value in data set [1] (ASA-treated group (group 2), mean (control group 8.0)) was 1.4%. Further, in data set [1] (setting [4]), the “14C-AA conversion to 12-HETE, Table IV” value is 4.9% and 5.1% (2×) and 4.8% (2×); the “14C-AA conversion to PGD2, Table IV” value is 0.3% and 0.9% and 0.8% and 0.5% and 0.4%; the “14C-AA conversion to PGE2, Table IV” value is 0.8% and 1.6% and 1.9% and 1.1% and 1.8%; the “14C-AA conversion to PGF2alpha, Table IV” value is 0.5% and 0.9% and 0.2% and 0.8% and 0.4%. Further, in data set [1] (setting [4]), the “14C-AA conversion to TXB2, Table IV” value is 1.3% and 1.2% and 1.1% and 1.5% and 0.6%; the “AA (%) remaining, Table IV” value was 82.9% and 74.3% and 81.2% and 73.7% and 79.4%. Moreover, the “14C-AA conversion to PGF2alpha” value in data set [1] (ASA-treated group irradiated (group 4), mean (control irradiated 2.7)) was determined as 0.6%. In data set [1] (ASA-treated group irradiated (group 4), mean (control irradiated 3.0)), the “14C-AA conversion to PGD2” value is listed as 0.6%. Also, in data set [1] (ASA-treated group irradiated (group 4), mean (control irradiated 4.1)), the “14C-AA conversion to 12-HETE” value came to 4.9%. The “14C-AA conversion to TXB2” value in data set [1] (ASA-treated group irradiated (group 4), mean (control irradiated 7.4)) worked out at 1.1%. Besides, the “14C-AA conversion to PGE2” value in data set [1] (ASA-treated group irradiated (group 4), mean (control irradiated 9.0)) amounted to 1.4%. For the same compound, the cellular viability result in data set [2] is given as “unchanged”.
